Data published in patent US11129801B2 (SigmaThera SAS, priority 2016, dated 2021).

Test system: rat medium spiny neurons (DARPP32 positive neurons)
Test: Survival of primary medium spiny neurons injured by glutamate
Type: cell-based
Conditions: glutamate 40 μM, 20 min
Description: Rat MSN of striatum were cultured as described (Ivkovic S, et al, (1999) The Journal of neuroscience: the official journal of the Society for Neuroscience 19(13): 5409-5419).
Briefly pregnant female rats of 15 days gestation were killed by cervical dislocation (Rats Wistar; Janvier) and the foetuses removed from the uterus. The embryonic midbrains were removed and placed in ice-cold medium of Leibovitz 15 (L15; PanBiotech, Ref P04-27055, Batch: 8810315) containing 2% of Penicillin-Streptomycin (PS; PanBiotech, ref: P06-07100, Batch: 7511015) and 1% of bovine serum albumin (BSA; PanBiotech, Ref: P06-1391100, Batch: H140904). Only the ventral portions of the mesencephalic flexure were used for the cell preparations as this region of the developing brain is rich in dopaminergic neurons. The midbrains were dissociated by trypsinisation for 20 minutes (min) at 37° C. (Trypsin EDTA 1×; PanBiotech, Ref: P10-023100, batch: 1670415). The reaction was stopped by the addition of Dulbecco's modified Eagle's medium (DMEM; PanBiotech, Ref: P04-03600, Batch: 9021115) containing DNase I grade II (0.1 mg/ml; PanBiotech, Ref: P60-37780100, Batch: H140508) and 10% of fetal calf serum (FCS; Invitrogen, Ref: 10270-098, Batch: 41G8542K). Cells were then mechanically dissociated by 3 passages through a 10 ml pipet. Cells were then centrifuged at 180×g for 10 min at 4° C. on a layer of BSA (3.5%) in L15 medium. The supernatant was discarded and the cell pellets were re-suspended in a defined culture medium consisting of Neurobasal (Invitrogen, Ref: 21103, Batch: 1754639) supplemented with B27 (2%; Invitrogen, ref: 17504, batch: 1799273), L-glutamine (2 mM; PanBiotech, Ref: P04-80100, Batch: 6620314) and 2% of PS. Viable cells were counted in a Neubauer cytometer using the trypan blue exclusion test. The cells were seeded at a density of 70000 cells/well in 96 well-plates (pre-coated with poly-D-lysine; Greiner, Ref: E150033VJ) and were cultured at 37° C. in a humidified air (95%)/CO2 (5%) atmosphere. Half of the medium was changed every 2 days with fresh medium. […]

Molecule	DARPP32 positive neurons (0.3 μM)	DARPP32 positive neurons (1 μM)	DARPP32 positive neurons (10 ng/mL)
CCC(C/C=C/c1ccccc1)(c1ccccc1)N(C)CC1CC1 (single isomer, unassigned; (+)) [igmesine, (+)-(E)-N-(cyclopropylmethyl)-N-methyl-3,6-diphenylhex-5-en-3-amine]	89.28 % of the control	81.60 % of the control	–
BDNF: Brain-derived neurotrophic factor, used as a reference compound (protein, UniProt P23560 19-247, looked up) Neurotrophic factor BDNF …: APMKEANIRGQGGLAYPGVRTHGTLESVNGPKAGSRGLTSLADTFEHVIEELLDEDQKVRPNEENNKDADLYTSRVMLSSQVPLEPPLLFLLEEYKNYLDAANMSMRVRRHSDPARRGELSVCDSISEWVTAADKKTAVDMSGGTVTVLEKVPVSKGQLKQYFYETKCNPMGYTKEGCRGIDKRHWNSQCRTTQSYVRALTMDSKKRIGWRFIRIDTSCVCTLTIKRGR	–	–	90.14 % of the control
